Experimental data reported in patent US5821231A, “CS-1 peptidomimetics, compositions and methods of using same” (Cytel Corporation, priority 1995, dated 1998).
Square brackets hold non-standard residues; d marks the D form. Peptide text beside a SMILES is read from it. * marks the point of attachment. NMeF = CN[C@@H](Cc1ccccc1)C(=O)O; NMeD = CN[C@@H](CC(=O)O)C(=O)O; Morpholide = C1CN(*)CCO1; PhAc = O=C(Cc1ccccc1)*

Tests used:
[1] = tested on: New Zealand white rabbits; assay: Treatment of asthmatic rabbits (house dust mite antigen challenge, crossover); assay type: in vivo, rabbit; conditions: 100 mg/kg nebulizer
Procedure: Six New Zealand white rabbits were immunized with house dust mite antigen from birth through four months of age. Upon immunization, three rabbits received a single nebulizer administration of the inhibitor compound, Compound ID No. 1051.01, N-phenylacetyl-Leu-Asp-Phe-morpholinamide in aqueous 50 percent ethanol as diluent in an amount of 100 mg/kg, and the other three received diluent alone. All of the rabbits were challenged with house dust mite antigen about 15-30 minutes after administration of the compound, with those animals not receiving compound serving as controls.
Once immunized and challenged, the inflammatory state subsides to a basal level within about three weeks. The three animals used as controls were thereafter used as subjects for receipt of an inhibitor compound, and the three rabbits that initially received the compound can serve as controls.
Such a crossover study was done here. […]
Initial pulmonary function, measured by dynamic compliance (Cdyn) and lung resistance (RL), and bronchoalveolar lavage (BAL) to obtain an effector cell count, here eosinophils, were conducted prior to administration of the compound or diluent for both portions of this crossover study. […]

[2] = tested on: BALB/c mice; assay: Adoptive transfer delayed type hypersensitivity in mice (oxazolone); assay type: in vivo, mouse; conditions: expanded study; versus vehicle alone
Procedure: An adoptive transfer delayed-type hypersensitivity murine model has been developed using splenic T cells primed to oxazolone. This model is described in Elices et al., Clin. Exp. Rheum., 11(Suppl. 8):577-580 (1993), whose procedures were followed here.
Thus, BALB/c mice were shaved on the belly and painted (50 μl on the belly and 5 μl on each paw) with three percent oxazolone in acetone/olive oil (4:1) at days zero and 1. At day 5, the mice were sacrificed, their spleens removed, and splenic T cells were obtained via nylon wool columns.
Normal saline or saline containing 25×10^6 /animal of the oxazolone-immune T cells were separately injected into naive mice. The mice were then challenged by painting 10 μl of 2 percent oxazolone onto one ear each. All procedures were carried out under sterile conditions and in endotoxin-free buffers.
Prior to challenge or saline injection, the mice were implanted with pumps that subcutaneously administered normal saline, normal saline containing the compound, Compound ID No. 896.52, N-phenylacetyl-Leu-Asp-Phe-D-Pro-NH2, or normal saline containing a compound with a scrambled sequence continually at 6 mg/kg/day for a 24-hour time period. The swelling diameter at the site of challenge or saline injection was measured with a microcaliper 24 hours thereafter.
An expanded study was carried out as described above except that a scrambled compound control was not used as a control for further inhibitor compounds of Table 1 with larger groups of mice. Statistical analyses were carried out versus injection of vehicle alone.

[3] = target: T1, VLA-4 (Homo sapiens, UniProt P05556+P13612); assay: In vitro binding assay: 51Cr-labeled Jurkat cells to solid phase-bound CS-1 compound (SEQ ID NO:1); assay type: cell-based; parameters: inflammatory cells that contain the VLA-4 receptor [Jurkat cells; host or cells: Jurkat cells (human T lymphoblastic line); conditions: for Relative Potency: binding inhibition potency (IC50) relative to standard compound of SEQ ID NO:3 = 1, about one-tenth or less assigned zero
T1 sequence (P13612 34-1032): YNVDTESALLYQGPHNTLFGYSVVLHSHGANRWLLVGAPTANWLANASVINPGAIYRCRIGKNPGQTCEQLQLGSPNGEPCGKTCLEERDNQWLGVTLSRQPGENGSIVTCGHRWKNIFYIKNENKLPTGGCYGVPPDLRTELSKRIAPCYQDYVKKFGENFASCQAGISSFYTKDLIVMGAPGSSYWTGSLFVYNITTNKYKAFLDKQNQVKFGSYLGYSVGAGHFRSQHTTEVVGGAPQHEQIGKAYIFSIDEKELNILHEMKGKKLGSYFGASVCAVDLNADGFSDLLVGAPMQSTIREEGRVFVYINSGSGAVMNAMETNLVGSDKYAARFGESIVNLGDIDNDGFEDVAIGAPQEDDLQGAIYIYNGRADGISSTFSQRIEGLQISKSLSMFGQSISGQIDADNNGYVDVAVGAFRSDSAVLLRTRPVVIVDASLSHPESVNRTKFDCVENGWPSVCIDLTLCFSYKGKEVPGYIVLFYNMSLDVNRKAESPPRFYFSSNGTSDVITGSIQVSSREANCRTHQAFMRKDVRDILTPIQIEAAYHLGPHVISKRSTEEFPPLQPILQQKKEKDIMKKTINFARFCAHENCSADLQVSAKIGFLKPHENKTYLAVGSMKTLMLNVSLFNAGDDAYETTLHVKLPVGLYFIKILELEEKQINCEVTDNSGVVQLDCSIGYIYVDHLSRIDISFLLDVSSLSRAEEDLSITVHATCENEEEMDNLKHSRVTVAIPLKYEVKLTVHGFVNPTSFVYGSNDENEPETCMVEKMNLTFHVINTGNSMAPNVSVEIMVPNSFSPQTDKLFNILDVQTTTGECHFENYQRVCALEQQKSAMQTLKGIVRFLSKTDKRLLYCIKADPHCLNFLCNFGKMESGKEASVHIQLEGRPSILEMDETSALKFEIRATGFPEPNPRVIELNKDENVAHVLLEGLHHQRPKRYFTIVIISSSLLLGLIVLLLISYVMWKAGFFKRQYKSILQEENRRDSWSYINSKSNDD
T1 sequence (P05556 21-798): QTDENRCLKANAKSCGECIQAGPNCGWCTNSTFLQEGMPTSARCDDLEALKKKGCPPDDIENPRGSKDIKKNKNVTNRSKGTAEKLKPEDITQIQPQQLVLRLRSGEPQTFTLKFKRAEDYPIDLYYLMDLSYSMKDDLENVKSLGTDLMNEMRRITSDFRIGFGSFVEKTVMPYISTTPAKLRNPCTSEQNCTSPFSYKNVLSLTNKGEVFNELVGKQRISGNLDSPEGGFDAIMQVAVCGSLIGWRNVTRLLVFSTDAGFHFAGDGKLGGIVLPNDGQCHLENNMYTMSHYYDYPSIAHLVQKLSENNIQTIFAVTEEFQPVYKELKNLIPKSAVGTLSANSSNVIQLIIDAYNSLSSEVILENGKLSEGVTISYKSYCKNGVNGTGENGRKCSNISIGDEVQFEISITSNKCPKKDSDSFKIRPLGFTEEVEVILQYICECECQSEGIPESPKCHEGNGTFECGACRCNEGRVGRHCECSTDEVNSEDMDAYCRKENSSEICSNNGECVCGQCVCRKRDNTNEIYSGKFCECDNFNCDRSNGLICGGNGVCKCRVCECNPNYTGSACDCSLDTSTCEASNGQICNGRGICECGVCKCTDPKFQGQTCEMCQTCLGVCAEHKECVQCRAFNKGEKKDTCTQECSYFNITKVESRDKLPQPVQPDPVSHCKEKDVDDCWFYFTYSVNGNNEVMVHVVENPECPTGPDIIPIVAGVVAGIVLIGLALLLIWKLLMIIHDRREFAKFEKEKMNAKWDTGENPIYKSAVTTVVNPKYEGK
Procedure: Binding inhibition is measured here as a concentration of compound that inhibits one-half the binding between a standard number of Jurkat cells and a standard amount of CS-1 compound bound to the surface of a microtiter plate well. Those concentrations are conveniently expressed as IC50 values, smaller numbers indicating a lower concentration required to inhibit 50 percent binding and therefore greater potency. Further specifics of this assay are provided hereinafter.
Jurkat cells (ATCC TIB 152), a human T lymphoblastic line, labeled with ^51 chromium were used to assay in vitro binding inhibition provided by various compounds discussed herein.
The plates were prepared as follows: The 25-mer CS-1 compound (SEQ ID NO:1) dissolved at 0.5-1 μg/ml in a buffer of 0.1M NaHCO3 at pH 9.5 that also contained 10 μg/ml of bovine serum albumin (BSA) or a conjugate of the CS-1 compound linked to ovalbumin (CS-1-OVA) dissolved at 1-2.5 μg/ml in the same buffer was used as the substrate. Each well of the microtiter plates was coated with 50 μl of substrate or buffer alone for controls. The wells were permitted to dry out completely and were then rinsed twice with PBS at pH 7.4. Non-specific binding sites of each well were then blocked using 200 μl per well of RPMI/1 percent BSA for two hours at room temperature.
Jurkat cells (3-5×10^6 cells) were placed into a 15 ml Falcon™ round-bottom tube with a cap. The tube was centrifuged, and the extra medium was then removed.
Two hundred microliters of a ^51 Cr labeling solution were added to the centrifuged cells and maintained in contact with the cells for 90-120 minutes in a warm room. […] Longer contact times provide a greater amount of labeling but lower cell viability.
The labeled cells are washed with (i) complete medium, (ii) 1 mM EDTA/PBS and then (iii) RPM1/1 percent BSA free of serum components. The cells are centrifuged after each washing. The cells are finally resuspended in serum-free RPMI/1 percent BSA at a concentration of 1×10^6 viable cells/ml, which provides a concentration that is diluted by one-half in the assay.
Inhibitor compounds are prepared as stock solutions at 20 mg/ml in DMSO in 1.5 ml cryogenic screwcap vials, and were stored at -70° C. Using Flow™ round-bottom or V-bottom microtiter plates, the inhibitor compounds were prepared at twice the assay concentration in RPMI/1 percent BSA at 60 μl/well.
Four initial dilutions were typically used.
The ^51 Cr-labeled cells ([…] at 60 μl/well) were then admixed with the diluted compound solutions. The admixtures were maintained at room temperature (about 22° C.) for 30 minutes.
One hundred microliters of each inhibitor compound/cell admixture were transferred to the substrate-coated wells. This was done in triplicate for each dilution. The resulting plates were incubated for 30 minutes at 37° C. and then washed gently three times with RPMI/1 percent BSA at 200 μl/well. Binding was observed microscopically, particularly after the second wash.
The bound cells were then lysed by the addition of a 0.5 percent solution of sodium dodecylsulfate in water at 100 μl/well. The resulting solutions were then processed for counting and calculation of IC50 values following usual procedures.
The data of Table 1 are normalized to the binding of SEQ ID NO: 3. […] Multiple assays for the same compound were averaged.

[4] = tested on: Jurkat T cell line; assay: Jurkat cell binding to frozen human rheumatoid arthritis synovial sections; assay type: cell-based; conditions: 10-mer at 500 μg/ml
Procedure: Binding studies were carried out using the Jurkat T cell line and frozen RA synovial sections. […] Stimulated MOLT-4 cells behaved similarly.
The absolute value of that IC50 value is about 0.5 μmolar.

[5] = tested on: immune T cells; conditions: about 50 μg/ml admixed with immune T cells; Ferguson et al.; cited from earlier work
[6] = target: T1, VLA-4; conditions: cited from earlier work

CC(C)C[C@H](NC(=O)Cc1ccccc1)C(=O)N[C@@H](CC(=O)O)C(=O)N[C@@H](Cc1ccccc1)C(=O)N1CCOCC1 [1051.01, N-phenylacetyl-Leu-Asp-Phe-morpholinamide] (PhAc-Leu-Asp-Phe-Morpholide)
Cdyn value over six hours after challenge ([1]; FIG. 4A): stayed at about the initial value | RL values over six hours after challenge ([1]; FIG. 4B): remained between the initial value and about 200% of that value

CC(C)C[C@H](NC(=O)Cc1ccccc1)C(=O)N[C@@H](CC(=O)O)C(=O)N[C@@H](Cc1ccccc1)C(=O)N1CCC(O)CC1 [1070.02, .phi.Ac--Leu--Asp--Phe-4-hydroxpiperidinamide]
Percent Inhibition (post-challenge swelling) [2]: 29%

CC(C)C[C@H](NC(=O)Cc1ccccc1)C(=O)N[C@@H](CC(=O)O)C(=O)N[C@@H](Cc1ccccc1)C(=O)N1CCN(CC(=O)O)CC1 [1111.06, .phi.Ac--Leu--Asp--Phe-4-N(carboxymethyl)piperazinamide]
Relative Potency [3]: 2600 | Percent Inhibition (post-challenge swelling) [2]: 30%

CCOC(=O)C[C@H](NC(=O)[C@H](CC(C)C)NC(=O)Cc1ccccc1)C(=O)N[C@@H](Cc1ccccc1)C(=O)N1CCC[C@@H]1C(N)=O [1190.01] (PhAc-LD(OEt)F[dP]-NH2)
Relative Potency (prodrug compound) ([3]; before the prodrug compound is enzymatically converted to an active form, relative to SEQ ID NO:3 = 1): 0

CC(C)C[C@H](NC(=O)Cc1ccccc1)C(=O)N[C@@H](CC(=O)O)C(=O)N(C)[C@@H](Cc1ccccc1)C(=O)N1CCC[C@@H]1C(N)=O [1190.05] (PhAc-LD[NMeF][dP]-NH2)
Relative Potency [3]: 0

CC(C)C[C@H](NC(=O)Cc1ccccc1)C(=O)N(C)[C@@H](CC(=O)O)C(=O)N[C@@H](Cc1ccccc1)C(=O)N1CCC[C@@H]1C(N)=O [1190.06] (PhAc-L[NMeD]F[dP]-NH2)
Relative Potency [3]: 0

CC[C@H](C)[C@H](NC(=O)[C@H](CCC(=O)O)NC(=O)[C@@H]1CCCN1C(=O)CN)C(=O)N[C@@H](CC(C)C)C(=O)N[C@@H](CC(=O)O)C(=O)N[C@H](C(=O)N1CCC[C@H]1C(=O)N[C@@H](CO)C(=O)N[C@H](C(=O)O)[C@@H](C)O)C(C)C [SEQ ID NO:3, GPEILDVPST] (H-GPEILDVPST-OH)
inhibition of Jurkat cell adhesion to RA synovial sections [4]: could be inhibited | abrogation of a transferred immune response [5]: could abrogate a transferred immune response

Leu-Asp-Val [LDV]
affinity of VLA-4 relative to native CS-1 25-mer [6]: at least two orders of magnitude lower affinity
